Results on 9 molecules are retold here after patent publication US9603854B2, “Indolizine compounds, a process for their preparation and pharmaceutical compositions containing them” (LES LABORATOIRES SERVIER, priority 2012, dated 2017).

In test [1] the target is Bcl-2 protein (Homo sapiens (Human), UniProt P10415). As to the kind of experiment: Inhibition of Bcl-2 by the fluorescence polarisation technique. To be noted: Bcl-2 inhibition, fluorescence polarisation test; read-out: IC50 (nM) Bcl-2 FP. In kind it is binding. The protocol: The fluorescence polarisation tests were carried out on microplates (384 wells). […] After incubation for 2 hours, the fluorescence polarisation is measured.
Bcl-2 protein, sequence (P10415 whole entry): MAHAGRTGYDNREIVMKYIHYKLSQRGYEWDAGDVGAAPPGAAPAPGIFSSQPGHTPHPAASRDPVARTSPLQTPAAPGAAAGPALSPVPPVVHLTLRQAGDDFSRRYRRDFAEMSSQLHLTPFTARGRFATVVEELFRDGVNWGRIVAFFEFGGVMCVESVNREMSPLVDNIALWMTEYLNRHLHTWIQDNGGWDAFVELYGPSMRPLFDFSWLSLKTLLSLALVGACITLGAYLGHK
In general terms: Polarisation of emitted light reports the rotation of a fluorescent probe.

The test system of test [2] is RS4;11 leukaemia tumour line. The experiment in a line: In vitro cytotoxicity (Microculture Tetrazolium Assay, 48 hours). The following applies: cytotoxicity for RS4;11 cells, MTT. The format is cell-based. The protocol:
The cytotoxicity studies were carried out on the RS4;11 leukaemia tumour line.
The cells are distributed onto microplates and exposed to the test compounds for 48 hours.

In test [3] the test system is caspase 3. As to the kind of experiment: Induction of caspase activity in vivo (DEVDase activity in tumour lysates, RS4;11 xenograft). To be noted: oral treatment 50 mg/kg, RS4;11 xenograft in SCID mice, 16 hours after treatment; for fold induction at 50 mg/kg: Mus musculus, read-out: Activation factor (versus control), DEVDase activity in the tumours. On the set-up: species or system mice (SCID strain). Here is the method:
The ability of the compounds of the invention to activate caspase 3 is evaluated in a xenograft model of RS4;11 leukaemia cells.
1×10^7 RS4;11 cells are grafted sub-cutaneously into immunosuppressed mice (SCID strain). 25 to 30 days after the graft, the animals are treated orally with the various compounds. Sixteen hours after treatment, the tumour masses are recovered and lysed, and the caspase 3 activity is measured in the tumour lysates.
This enzymatic measurement is carried out by assaying the appearance of a fluorigenic cleavage product (DEVDase activity, Promega). It is expressed in the form of an activation factor corresponding to the ratio between the two caspase activities: the activity for the treated mice divided by the activity for the control mice.

Where a name gives a salt, the structure may show the parent alone.

The term IC50 denotes the concentration needed to halve the response being measured. As for `Cn1ccc2cc(N(C(=O)c3cc(-c4cc5c(cc4C(=O)N4Cc6ccccc6C[C@H]4CN4CCOCC4)OCO5)n4c3CN(C(=O)OC(C)(C)C)CC4)c3ccc(O)cc3)ccc21` [Example 72], the IC50 in test [1] worked out at 220 nM; in test [2], 270 nM. `Cn1ccc2ccc(N(C(=O)c3cc(-c4cc(Cl)ccc4C(=O)N4Cc5ccccc5C[C@H]4CN4CCOCC4)n4c3CCCCC4)c3ccc(O)cc3)cc21` [Example 83, 3-{5-Chloro-2-[((3S)-3-(4-morpholinylmethyl)-3,4-dihydro-2(1H)-isoquinolinyl)carhonyl]phenyl}-N-(4-hydroxyphenyl)-N-(1-methyl-1H-indol-6-yl)-6,7,8,9-tetrahydro-5H-pyrrolo[1,2-a]azepine-1-carboxamide hydrochloride] gave a 50% inhibitory concentration (IC50) in test [2] of 41.2 nM. For `O=C(c1cc(-c2cc3c(cc2C(=O)N2Cc4ccccc4C[C@H]2CN2CCOCC2)OCO3)n2c1CCCC2)N(c1ccc(O)cc1)c1ccc(Cl)cc1` [Example 3, N-(4-Chlorophenyl)-N-(4-hydroxyphenyl)-3-{6-[((3S)-3-(4-morpholinylmethyl)-3,4-dihydro-2(1H)-isoquinolinyl)carbonyl]-1,3-benzodioxol-5-yl}-5,6,7,8-tetrahydro-1-indolizine carboxamide hydrochloride], the half-inhibitory concentration (IC50) in test [1] was 20 nM; in test [2] (Homo sapiens), 44.7 nM. Further, the fold induction at 50 mg/kg in test [3] stood at 5.7. Molecule `Cl.Cn1ccc2cc(N(C(=O)c3cc(-c4cc(Cl)ccc4C(=O)N4Cc5ccccc5C[C@H]4CN4CCOCC4)n4ccccc34)c3ccc(O)cc3)ccc21` [Example 67, 3-{5-Chloro-2-[((3S)-3-(4-morpholinylmethyl)-3,4-dihydro-2(1H)-isoquinolinyl)carhonyl]phenyl}-N-(4-hydroxyphenyl)-N-(1-methyl-1H-indol-5-yl)-1-indolizine carboxamide hydrochloride] came in with an IC50 in test [2] of 17.7 nM. The “Activation factor (versus control), DEVDase activity in the tumours” value in test [3] is listed as 18.9 (50 mg/kg).

As for `Cn1ccc2cc(N(C(=O)c3cc(-c4cc5c(cc4C(=O)N4Cc6ccccc6C[C@H]4CN4CCOCC4)OCO5)n4c3CCC4)c3ccc(O)cc3)ccc21` [Example 96, N-(4-Hydroxyphenyl)-N-(1-meth-1H-indol-5-yl)-5-(6-{[(3S)-3-(morpholin-4-ylmethyl)-3,4-dihydroisoquinolin-2(1H)-yl]carbonyl}-1,3-benzodioxol-5-yl)-2,3-dihydro-1H-pyrrolizine-7-carboxamide hydrochloride], in test [2], the IC50 came to 58.8 nM.

`O=C(c1cc(-c2cc3c(cc2C(=O)N2Cc4ccccc4C[C@H]2CN2CCOCC2)OCO3)n2ccccc12)N(c1ccccc1)c1ccc(O)cc1` [Example 58, N-(4-Hydroxyphenyl)-3-{6-[((3S)-3-(4-morpholinylmethyl)-3,4-dihydro-2(1H)-isoquinolinyl)carbonyl]-1,3-benzodioxol-5-yl}-N-phenyl-1-indolizine carboxamide hydrochloride]: the IC50 was 22 nM in test [1] and 40.1 nM in test [2] (Homo sapiens). Besides, the fold induction at 50 mg/kg in test [3] was 23.3. As to `CN1CCc2cc(N(C(=O)c3cc(-c4cc(Cl)ccc4C(=O)N4Cc5ccccc5C[C@H]4CN4CCOCC4)c4n3CCCC4)c3ccc(O)cc3)ccc21` [Example 43, 1-{5-Chloro-2-[((3S)-3-(4-morpholinylmethyl)-3,4-dihydro-2(1H)-isoquinolinyl)carbonyl]phenyl}-N-(4-hydroxyphenyl)-N-(1-methyl-2,3-dihydro-1H-indol-5-yl)-5,6,7,8-tetrahydro-3-indolizine carboxamide hydrochloride], the IC50 in test [1] came out at 110 nM. In test [2] (Homo sapiens), `CCOc1ccc(C(=O)N2Cc3ccccc3C[C@H]2CN2CCOCC2)c(-c2cc(C(=O)N(c3ccc(O)cc3)c3ccc4c(ccn4C)c3)c3n2CCCC3)c1` [Example 36, 3-{5-Ethoxy-2-[((3S)-3-(4-morpholinylmethyl)-3,4-dihydro-2(1H)-isoquinolinyl)carbonyl]phenyl}-N-(4-hydroxyphenyl)-N-(1-methyl-1H-indol-5-yl)-5,6,7,8-tetrahydro-1-indolizine carboxamide hydrochloride] yielded an IC50 of 135 nM. `O=C(c1cc(-c2cc3c(cc2C(=O)N2Cc4ccccc4C[C@H]2CN2CCOCC2)OCO3)n2c1CCCC2)N(c1ccc(O)cc1)c1ccc(O)cc1` [Example 6, N,N-bis(4-Hydroxyphenyl)-3-{6-[((3S)-3-(4-morpholinylmethyl)-3,4-dihydro-2(1H)-isoquinolinyl)carbonyl]-1,3-benzodioxol-5-yl}-5,6,7,8-tetrahydra-1-indolizine carboxamide hydrochloride] had an IC50 in test [2] of 30 nM.
